Test results: ChEMBL document CHEMBL1201862, “PubChem BioAssay data set” (2004)
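Results reflect a 48-hour exposure of cells in 96-well plates to compound at five concentrations. Here, GI50 denotes the concentration required for 50% inhibition of growth.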 The source made the active and inactive calls. No stated cut-off is given here; in the data, active = GI50 up to about 1.1 µM and inactive = higher.

Experiments:
Assay in all cases: NCI tumour cell line growth inhibition, 48 h
UO-31 = system: UO-31
UACC-257 = system: UACC-257
SNB-75 = system: SNB-75
OVCAR-8 = system: OVCAR-8
MDA-MB-231 = system: MDA-MB-231
MCF7 = system: MCF7
DU-145 = system: DU-145
NCI-H460 = system: NCI-H460
HCT-116 = system: HCT-116
LOX IMVI = system: LOX IMVI
NCI-H23 = system: NCI-H23
HCC 2998 = system: HCC 2998
PC-3 = system: PC-3
EKVX = system: EKVX
HOP-62 = system: HOP-62
SF-268 = system: SF-268
SR = system: SR
RPMI-8226 = system: RPMI-8226
OVCAR-3 = system: OVCAR-3

Compound | GI50 (UO-31) | GI50 (UACC-257) | GI50 (SNB-75) | GI50 (OVCAR-8) | GI50 (MDA-MB-231) | GI50 (MCF7) | GI50 (DU-145) | GI50 (NCI-H460) | GI50 (HCT-116) | GI50 (LOX IMVI) | GI50 (NCI-H23) | GI50 (HCC 2998) | GI50 (PC-3) | GI50 (EKVX) | GI50 (HOP-62) | GI50 (SF-268) | GI50 (SR) | GI50 (RPMI-8226) | GI50 (OVCAR-3)
COc1cc2c3cc1Oc1c(OC)c(OC)cc4c1C(Cc1ccc(O)c(c1)Oc1ccc(cc1)CC3N(C)CC2)N(C)CC4 (stereo not drawn) | 16.7 µM (inactive) | 34.1 µM (inactive) | 23.3 µM (inactive) | 33.6 µM (inactive) | 35.6 µM (inactive) | 45.9 µM (inactive) | 37.8 µM (inactive) | 15.7 µM (inactive) | 45.3 µM (inactive) | 58.7 µM (inactive) | 14.8 µM (inactive) | 15.8 µM (inactive) | 31.3 µM (inactive) | 27.9 µM (inactive) | 64.6 µM (inactive) | 24.3 µM (inactive) | 2.09 µM (inactive) |  | 
Cc1cc(C)c2c(c1)C/C(=C\c1ccccc1C(=O)O)C2=O | 73.3 µM (inactive) | > 100 µM (inactive) | 75.3 µM (inactive) | 57 µM (inactive) | > 100 µM (inactive) | 78.2 µM (inactive) | > 100 µM (inactive) | 11.7 µM (inactive) | 76.6 µM (inactive) | > 100 µM (inactive) | > 100 µM (inactive) | 33.5 µM (inactive) | > 100 µM (inactive) | 82.6 µM (inactive) | > 100 µM (inactive) | > 100 µM (inactive) | > 100 µM (inactive) | > 100 µM (inactive) | 23.7 µM (inactive)
COc1cc(/C=N\NC(=O)C[N+](C)(C)C)cc(OC)c1OC |  | > 10 µM (inactive) | > 10 µM (inactive) | > 10 µM (inactive) | > 10 µM (inactive) | > 10 µM (inactive) | > 10 µM (inactive) |  | > 10 µM (inactive) | > 10 µM (inactive) | > 10 µM (inactive) | > 10 µM (inactive) | > 10 µM (inactive) |  | > 10 µM (inactive) | > 10 µM (inactive) | > 10 µM (inactive) | > 10 µM (inactive) | > 10 µM (inactive)
COc1ccc(C2=NOC(N)(c3ccc(OC)cc3)C2)cc1 (stereo not drawn) | > 100 µM (inactive) | > 100 µM (inactive) | > 100 µM (inactive) | > 100 µM (inactive) | 81.5 µM (inactive) | > 100 µM (inactive) | > 100 µM (inactive) | > 100 µM (inactive) | > 100 µM (inactive) | > 100 µM (inactive) | > 100 µM (inactive) | > 100 µM (inactive) | > 100 µM (inactive) | > 100 µM (inactive) | 64.7 µM (inactive) |  | > 100 µM (inactive) | > 100 µM (inactive) | > 100 µM (inactive)
COc1cc(C)cc2c1c(=O)c1ccccc1n2C |  | 40.2 µM (inactive) | 41.7 µM (inactive) | 40.1 µM (inactive) | 53.5 µM (inactive) | 16.4 µM (inactive) | 49.3 µM (inactive) | 32.7 µM (inactive) | 30 µM (inactive) | 16.8 µM (inactive) | 40.8 µM (inactive) | 45.7 µM (inactive) | 29.2 µM (inactive) | 55.3 µM (inactive) | 41.4 µM (inactive) | 49.7 µM (inactive) | 22.1 µM (inactive) | 19.7 µM (inactive) | 37.6 µM (inactive)
NC(=O)C(N)Cc1ccc(O)cn1 (stereo not drawn) | > 100 µM (inactive) | > 100 µM (inactive) | > 100 µM (inactive) | > 100 µM (inactive) | > 100 µM (inactive) | > 100 µM (inactive) | > 100 µM (inactive) | > 100 µM (inactive) | > 100 µM (inactive) | > 100 µM (inactive) | > 100 µM (inactive) | > 100 µM (inactive) | > 100 µM (inactive) | > 100 µM (inactive) | > 100 µM (inactive) | > 100 µM (inactive) | > 100 µM (inactive) | > 100 µM (inactive) | > 100 µM (inactive)
O=C1CC2C=CC(O)C(C1)C2 (stereo not drawn) | > 100 µM (inactive) | > 100 µM (inactive) | 72.6 µM (inactive) | > 100 µM (inactive) | > 100 µM (inactive) | > 100 µM (inactive) | > 100 µM (inactive) | > 100 µM (inactive) | > 100 µM (inactive) | > 100 µM (inactive) | > 100 µM (inactive) | > 100 µM (inactive) | > 100 µM (inactive) |  | > 100 µM (inactive) | > 100 µM (inactive) | < 0.01 µM (active) | > 100 µM (inactive) | > 100 µM (inactive)
O=C1C(/N=N/c2ccc(-c3nc4ccccc4[nH]3)cc2)NC(=S)N1c1ccccc1 (stereo not drawn) | > 100 µM (inactive) | > 100 µM (inactive) | 93.1 µM (inactive) | 47.2 µM (inactive) | > 100 µM (inactive) | 10.5 µM (inactive) | 28.6 µM (inactive) | 56.9 µM (inactive) | 36.8 µM (inactive) | 19.8 µM (inactive) | 57.4 µM (inactive) | 21.2 µM (inactive) | 98.2 µM (inactive) | > 100 µM (inactive) | > 100 µM (inactive) | > 100 µM (inactive) | 0.671 µM (active) | 22.1 µM (inactive) | > 100 µM (inactive)
CN(CCNC(=O)c1cn(C)c2c1ccc1cc(Cl)ccc12)CCNC(=O)c1cn(C)c2c1ccc1cc(Cl)ccc12 | 1.53 µM (inactive) | 6.38 µM (inactive) | 1.68 µM (inactive) | 6 µM (inactive) | 6.62 µM (inactive) | 1.86 µM (inactive) | 1.73 µM (inactive) | 3.24 µM (inactive) | 1.71 µM (inactive) | 5.71 µM (inactive) | 2.01 µM (inactive) | 1.49 µM (inactive) | 5.5 µM (inactive) | 1.94 µM (inactive) | 1.79 µM (inactive) | 1.77 µM (inactive) | 5.11 µM (inactive) |  | 2.4 µM (inactive)
O=c1c2cccnc2[nH]c2ccc3[nH]ncc3c12 |  | > 10 µM (inactive) | > 10 µM (inactive) | > 10 µM (inactive) | > 10 µM (inactive) | > 10 µM (inactive) | > 10 µM (inactive) | > 10 µM (inactive) | 7.91 µM (inactive) | 2.91 µM (inactive) | > 10 µM (inactive) | > 10 µM (inactive) | > 10 µM (inactive) | 9.33 µM (inactive) | > 10 µM (inactive) | > 10 µM (inactive) | > 10 µM (inactive) | > 10 µM (inactive) | > 10 µM (inactive)
Oc1ccc(SCc2ccc(NCc3ccccc3)cc2)cc1 | 14.3 µM (inactive) | 29.9 µM (inactive) | 21.6 µM (inactive) | 37.8 µM (inactive) | 39.9 µM (inactive) | 29.8 µM (inactive) | 32 µM (inactive) | 31 µM (inactive) | 46.6 µM (inactive) | 19.9 µM (inactive) | 24.7 µM (inactive) | 25.2 µM (inactive) | 18.9 µM (inactive) | 19.4 µM (inactive) | 46.6 µM (inactive) | 39.4 µM (inactive) | 13.1 µM (inactive) |  | 30 µM (inactive)
CCc1c[n+]([O-])c(C)cc1[N+](=O)[O-] | > 100 µM (inactive) | > 100 µM (inactive) | 78.3 µM (inactive) | 46.2 µM (inactive) | 22.8 µM (inactive) | 90.8 µM (inactive) | 28 µM (inactive) | 20.7 µM (inactive) | 26.3 µM (inactive) | > 100 µM (inactive) | 74.1 µM (inactive) | 24.3 µM (inactive) | > 100 µM (inactive) | 29.6 µM (inactive) | > 100 µM (inactive) | > 100 µM (inactive) | 33.6 µM (inactive) | 33.5 µM (inactive) | > 100 µM (inactive)
CC1(C)C=C(/C=N/Nc2ccc([N+](=O)[O-])cc2)C(C#N)=C(O)C1(C#N)C#N | > 100 µM (inactive) | > 100 µM (inactive) | > 100 µM (inactive) | > 100 µM (inactive) | > 100 µM (inactive) | > 100 µM (inactive) | > 100 µM (inactive) | > 100 µM (inactive) | > 100 µM (inactive) | > 100 µM (inactive) | > 100 µM (inactive) | > 100 µM (inactive) | > 100 µM (inactive) | > 100 µM (inactive) | > 100 µM (inactive) | > 100 µM (inactive) | > 100 µM (inactive) | > 100 µM (inactive) | > 100 µM (inactive)
CCOC(=O)C(Cc1cccn1C(=O)OC(C)(C)C)[N+](=O)[O-] (stereo not drawn) | 21.2 µM (inactive) | 28.3 µM (inactive) | 23.7 µM (inactive) | 31.7 µM (inactive) | 19 µM (inactive) | 37.7 µM (inactive) | 26.9 µM (inactive) | 24.3 µM (inactive) | 20.9 µM (inactive) | 17.5 µM (inactive) | 34.8 µM (inactive) | 21 µM (inactive) | 20.7 µM (inactive) | 48.3 µM (inactive) | 23.9 µM (inactive) | 33.9 µM (inactive) | 19 µM (inactive) | 20.5 µM (inactive) | 32.1 µM (inactive)
COC(=O)C(COC(=O)/C=C/c1ccc(OC(C)=O)c(OC(C)=O)c1)NC(=O)/C=C/c1ccc(OC(C)=O)c(OC(C)=O)c1 (stereo not drawn) |  | 44.4 µM (inactive) | 29.9 µM (inactive) | 30.4 µM (inactive) | 14.9 µM (inactive) | 28.3 µM (inactive) | 20.8 µM (inactive) | 21.3 µM (inactive) | 19.2 µM (inactive) | 16.3 µM (inactive) | 25.9 µM (inactive) | 19.4 µM (inactive) | 13.6 µM (inactive) | 25.5 µM (inactive) | 23 µM (inactive) | > 10 µM (inactive) | 18 µM (inactive) | 19.6 µM (inactive) | 15.4 µM (inactive)
